{"source": "ChEMBL document CHEMBL3045279", "about": "“Chiral Synthesis of Pefurazoate Enantiomers and Their Antifungal Activity to Gibberella fujikuroi” (1992)", "type_in_all_cases": "functional", "key": {"Fusarium fujikuroi [1]": {"tested_on": "Fusarium fujikuroi", "test": "Inhibition of ergosterol biosynthesis in Fusarium fujikuroi assessed as decrease in ergosterol level in total lipids measuring [2-14C]-sodium acetate incorporation at 0.24 ppm after 2 hr by liquid scintillation counting analysis (reference value: 6 to 12.3%)"}, "Fusarium fujikuroi [2]": {"tested_on": "Fusarium fujikuroi", "test": "Antifungal activity against Fusarium fujikuroi assessed as mycelial growth inhibition at 10 ppm after 4 days relative to control", "conditions": "96 h, read-out: GI"}, "Fusarium fujikuroi [3]": {"tested_on": "Fusarium fujikuroi", "test": "Antifungal activity against Fusarium fujikuroi assessed as mycelial growth inhibition at 2.5 ppm after 4 days relative to control", "conditions": "96 h, read-out: GI"}, "Fusarium fujikuroi [4]": {"tested_on": "Fusarium fujikuroi", "test": "Inhibition of ergosterol biosynthesis in Fusarium fujikuroi assessed as decrease in ergosterol level in total lipids measuring [2-14C]-sodium acetate incorporation at 7.35 ppm after 2 hr by liquid scintillation counting analysis (reference value: 6 to 12.3%)"}, "Fusarium fujikuroi [5]": {"tested_on": "Fusarium fujikuroi", "test": "Antifungal activity against Fusarium fujikuroi assessed as mycelial growth inhibition at 1.25 ppm after 4 days relative to control", "conditions": "96 h, read-out: GI"}, "Fusarium fujikuroi [6]": {"tested_on": "Fusarium fujikuroi", "test": "Antifungal activity against Fusarium fujikuroi assessed as mycelial growth inhibition at 40 ppm after 4 days relative to control", "conditions": "96 h, read-out: GI"}, "Fusarium fujikuroi [7]": {"tested_on": "Fusarium fujikuroi", "test": "Antifungal activity against Fusarium fujikuroi assessed as mycelial growth inhibition after 4 days", "conditions": "96 h; for EC50: read-out: ED50 (the source's name)"}, "Fusarium fujikuroi [8]": {"tested_on": "Fusarium fujikuroi", "test": "Antifungal activity against Fusarium fujikuroi assessed as mycelial growth inhibition at 20 ppm after 4 days relative to control", "conditions": "96 h, read-out: GI"}, "Fusarium fujikuroi [9]": {"tested_on": "Fusarium fujikuroi", "test": "Antifungal activity against Fusarium fujikuroi assessed as mycelial growth inhibition at 5 ppm after 4 days relative to control", "conditions": "96 h, read-out: GI"}, "Fusarium fujikuroi [10]": {"tested_on": "Fusarium fujikuroi", "test": "Inhibition of ergosterol biosynthesis in Fusarium fujikuroi assessed as [2-14C]-sodium acetate incorporation at 7.35 ppm after 2 hr by liquid scintillation counting analysis relative to control"}, "Fusarium fujikuroi [11]": {"tested_on": "Fusarium fujikuroi", "test": "Inhibition of ergosterol biosynthesis in Fusarium fujikuroi assessed as increase in 24-methylenedihydrolanosterol level in total lipids measuring [2-14C]-sodium acetate incorporation at 7.35 ppm after 2 hr by liquid scintillation counting analysis (reference value: 4.8 to 7.4%)"}, "Fusarium fujikuroi [12]": {"tested_on": "Fusarium fujikuroi", "test": "Inhibition of ergosterol biosynthesis in Fusarium fujikuroi assessed as increase in 24-methylenedihydrolanosterol level in total lipids measuring [2-14C]-sodium acetate incorporation at 0.24 ppm after 2 hr by liquid scintillation counting analysis (reference value: 4.8 to 7.4%)"}, "Fusarium fujikuroi [13]": {"tested_on": "Fusarium fujikuroi", "test": "Antifungal activity against Fusarium fujikuroi assessed as mycelial growth inhibition at 0.15 ppm after 4 days relative to control", "conditions": "96 h, read-out: GI"}, "Fusarium fujikuroi [14]": {"tested_on": "Fusarium fujikuroi", "test": "Antifungal activity against Fusarium fujikuroi assessed as mycelial growth inhibition at 0.63 ppm after 4 days relative to control", "conditions": "96 h, read-out: GI"}, "Fusarium fujikuroi [15]": {"tested_on": "Fusarium fujikuroi", "test": "Antifungal activity against Fusarium fujikuroi assessed as mycelial growth inhibition at 0.31 ppm after 4 days relative to control", "conditions": "96 h, read-out: GI"}, "Fusarium fujikuroi [16]": {"tested_on": "Fusarium fujikuroi", "test": "Inhibition of ergosterol biosynthesis in Fusarium fujikuroi assessed as [2-14C]-sodium acetate incorporation at 0.24 ppm after 2 hr by liquid scintillation counting analysis relative to control"}}, "data": [{"smiles": "C=CCCCOC(=O)[C@@H](CC)N(Cc1ccco1)C(=O)n1ccnc1", "note": "[(R)-(+)-pefurazoate]", "values": [{"measurement": "inhibition at 0.24 ppm", "setting": "Fusarium fujikuroi [1]", "value": 3.2, "unit": "%"}, {"measurement": "inhibition of growth at 10 ppm", "setting": "Fusarium fujikuroi [2]", "value": 53, "unit": "%"}, {"measurement": "inhibition of growth at 2.5 ppm", "setting": "Fusarium fujikuroi [3]", "value": 38, "unit": "%"}, {"measurement": "inhibition at 7.35 ppm", "setting": "Fusarium fujikuroi [4]", "value": 1.3, "unit": "%"}, {"measurement": "inhibition of growth at 1.25 ppm", "setting": "Fusarium fujikuroi [5]", "value": 25, "unit": "%"}, {"measurement": "inhibition of growth at 40 ppm", "setting": "Fusarium fujikuroi [6]", "value": 73, "unit": "%"}, {"measurement": "MIC", "setting": "Fusarium fujikuroi [7]", "value": 1.25, "unit": "µg/mL"}, {"measurement": "EC50", "setting": "Fusarium fujikuroi [7]", "value": 7.35, "unit": "µg/mL"}, {"measurement": "inhibition of growth at 20 ppm", "setting": "Fusarium fujikuroi [8]", "value": 63, "unit": "%"}, {"measurement": "inhibition of growth at 5 ppm", "setting": "Fusarium fujikuroi [9]", "value": 45, "unit": "%"}, {"measurement": "inhibition at 7.35 ppm", "setting": "Fusarium fujikuroi [10]", "value": 47, "unit": "%"}, {"measurement": "inhibition at 7.35 ppm", "setting": "Fusarium fujikuroi [11]", "value": 14.2, "unit": "%"}, {"measurement": "inhibition at 0.24 ppm", "setting": "Fusarium fujikuroi [12]", "value": 12.2, "unit": "%"}]}, {"smiles": "C=CCCCOC(=O)C(CC)N(Cc1ccco1)C(=O)n1ccnc1", "note": "(racemic) [Pefurazoate]", "values": [{"measurement": "inhibition of growth at 2.5 ppm", "setting": "Fusarium fujikuroi [3]", "value": 100, "unit": "%"}, {"measurement": "inhibition of growth at 1.25 ppm", "setting": "Fusarium fujikuroi [5]", "value": 75, "unit": "%"}, {"measurement": "inhibition of growth at 0.15 ppm", "setting": "Fusarium fujikuroi [13]", "value": 20, "unit": "%"}, {"measurement": "MIC", "setting": "Fusarium fujikuroi [7]", "value": 2.5, "unit": "µg/mL"}, {"measurement": "EC50", "setting": "Fusarium fujikuroi [7]", "value": 0.49, "unit": "µg/mL"}, {"measurement": "inhibition of growth at 0.63 ppm", "setting": "Fusarium fujikuroi [14]", "value": 58, "unit": "%"}, {"measurement": "inhibition of growth at 5 ppm", "setting": "Fusarium fujikuroi [9]", "value": 100, "unit": "%"}, {"measurement": "inhibition of growth at 0.31 ppm", "setting": "Fusarium fujikuroi [15]", "value": 35, "unit": "%"}]}, {"smiles": "C=CCCCOC(=O)[C@H](CC)N(Cc1ccco1)C(=O)n1ccnc1", "note": "[(S)-(-)-pefurazoate]", "values": [{"measurement": "inhibition at 0.24 ppm", "setting": "Fusarium fujikuroi [1]", "value": 0.8, "unit": "%"}, {"measurement": "inhibition of growth at 2.5 ppm", "setting": "Fusarium fujikuroi [3]", "value": 100, "unit": "%"}, {"measurement": "inhibition at 0.24 ppm", "setting": "Fusarium fujikuroi [16]", "value": 87, "unit": "%"}, {"measurement": "inhibition of growth at 1.25 ppm", "setting": "Fusarium fujikuroi [5]", "value": 100, "unit": "%"}, {"measurement": "inhibition of growth at 0.15 ppm", "setting": "Fusarium fujikuroi [13]", "value": 35, "unit": "%"}, {"measurement": "MIC", "setting": "Fusarium fujikuroi [7]", "value": "> 40", "unit": "µg/mL"}, {"measurement": "EC50", "setting": "Fusarium fujikuroi [7]", "value": 0.24, "unit": "µg/mL"}, {"measurement": "inhibition of growth at 0.63 ppm", "setting": "Fusarium fujikuroi [14]", "value": 78, "unit": "%"}, {"measurement": "inhibition of growth at 5 ppm", "setting": "Fusarium fujikuroi [9]", "value": 100, "unit": "%"}, {"measurement": "inhibition of growth at 0.31 ppm", "setting": "Fusarium fujikuroi [15]", "value": 60, "unit": "%"}, {"measurement": "inhibition at 0.24 ppm", "setting": "Fusarium fujikuroi [12]", "value": 13.6, "unit": "%"}]}]}
